From patent US6184254A, “Methods of identifying modulators of perivascular sensory nerve Ca2+ receptors” (priority 1998, dated 2001)
Entries after “also recorded” stand apart in the source; their conditions may differ. Each block holds one compound with its values, some of them ahead of it.

Legend:
[1] = test system: mesenteric resistance arteries; experiment: Ca2+-induced relaxation of isolated mesenteric resistance arteries (wire myograph); parameters: species or system rat
Source text: (§1) Branch I and II mesenteric resistance arteries, internal diameter […], are isolated from the mesenteric arcade of male Wistar rats and placed in ice cold physiologic salt solution (PSS) of the following composition in mM: NaCl, 130-140; KCl, 4.7; MgSO4.7H2 O, 1.17; NaHCO3, 5-15; KH2 PO4, 1.15 and Na2 HPO4, 1.10, CaCl2, 1.0; HEPES, 50; and glucose, 5, with a pH of 7.4 when gassed with 95% air, 5% CO2.
After cleaning of fat and connective tissue, the arterial segments are denuded of endothelium by rubbing a human hair in and out of the lumen. The vessel segments are then mounted between a force transducer and translation stage of a wire myograph using tungsten wire and the PSS is warmed to 37° C. and gassed with 95% air, 5% CO2 to provide a pH of 7.4. The vessel segments are then stretched to a length which is equivalent to an internal diameter of […] and allowed to equilibrate for 30 minutes. […]
Mesenteric resistance artery segments are isolated from sham treated and denervated rats and prepared for measurement of isometric force generation using the wire myograph system. […] For each vessel, the maximal level of relaxation is recorded and used for comparisons. At the end of the protocol, the ability of the vessel to relax in response to addition of sodium nitroprusside (SNP) is assessed to determine the ability to relax in response to a non-neural stimulus. […]

[2] = test system: renal artery segment pre-contracted with norepinephrine; experiment: Superfusion bioassay with renal artery segment; parameters: species or system rat
Source text: The renal artery used as the bioassay segment was isolated and mounted between a fixed support and a force transducer and the lack of response to addition of Ca^2+ was verified (FIG. 9A). The bioassay segment was then superfused with PSS that was allowed to drip across a mesenteric arcade attached to PE-10 tubing; the cut ends of the arcade were tied with suture material to prevent egress of endothelium-derived factors. […] To further examine the possibility that a diffusible substance was released from the mesenteric arcade in response to 5 mM Ca^2+, the superfusate was collected and stored on ice for approximately 45 minutes. The bioassay segment was then returned to the organ chamber, recontracted with norepinephrine and the response to Ca^2+ and to the collected superfusate were assessed.

[3] = test system: mesenteric resistance arteries; experiment: Isometric force/active stress of Ca2+-depleted mesenteric resistance arteries; parameters: species or system Wistar rat
Protocol: In the course of studies designed to examine the hypothesis that the Ca^2+ force relationship of resistance arteries is altered in genetically hypertensive rats, it was discovered that physiologic concentrations of extracellular Ca^2+ affected the repeated contraction elicited by norepinephrine in Ca^2+ -free medium.
(§2) Mesenteric resistance arteries were isolated from Wistar rats; and intracellular Ca^2+ and isometric force were measured using a fura-based method and w ire myography (Bian, et aL, 1995b). Vessels were depleted of releasable Ca^2+ by repeated contraction with norepinephrine; and extracellular Ca^2+ was then cumulatively added back from 0.025-2.5 mmol/L in the presence of a n agonist. […] It was concluded that extracellular Ca^2+ limits force generation by depressing myofilament Ca^2+ sensitivity and decreasing intracellular Ca^2+ secondary to activation of a Ca^2+ -sensitive K^+ channel.

[4] = test system: intracellular Ca^2+ of mesenteric resistance arteries; experiment: Intracellular Ca2+ (fura-based) of mesenteric resistance arteries; parameters: species or system Wistar rat; conditions: 1.6 and 2.5 mmol/L Ca2+
Protocol: as §2

[5] = test system: mesenteric resistance arteries of SHR and WKY; experiment: Response to norepinephrine of SHR and WKY mesenteric resistance arteries at different extracellular Ca2+; parameters: species or system rat (SHR and WKY); conditions: 1.5 and 2.5 vs 1.25 mmol/L Ca2+, both strains
Protocol: In an initial series of experiments the isometric force response of mesenteric resistance arteries of SHR and WKY was assessed to cumulative addition of norepinephrine in the presence of 1.25, 1.5 and 2.5 mmol/L extracellular Ca^2+ (Li, J., et al., 1993).

[6] = test system: mesenteric resistance arteries; conditions: cited from earlier work
blood pressure [7] = conditions: SHR; cited from earlier work
blood pressure [8] = conditions: cited from earlier work
rat tail arteries = conditions: cited from earlier work
rat aorta = conditions: cited from earlier work
cremaster arterioles = conditions: Ca2+ 0 to 5.1 mM; cited from earlier work
mammalian arteries = conditions: slightly supraphysiologic concentrations; cited from earlier work
aorta = conditions: high extracellular Ca2+; cited from earlier work
CaR = conditions: cited from earlier work
[9] = test system: norepinephrine precontracted mesenteric resistance arteries (perivascular CaR); experiment: Vasorelaxation of norepinephrine precontracted mesenteric resistance arteries; parameters: species or system rat
Source text: as §1
After cleaning of fat and connective tissue, the arterial segments are denuded of endothelium by rubbing a human hair in and out of the lumen. The vessel segments are then mounted between a force transducer and translation stage of a wire myograph using tungsten wire and the PSS is warmed to 37° C. and gassed with 95% air, 5% CO2 to provide a pH of 7.4. The vessel segments are then stretched to a length which is equivalent to an internal diameter of […] and allowed to equilibrate for 30 minutes. The vessels are then exposed to […] norepinephrine for three 5 minute periods to induce reproducible contractile responses. […] The vessel is then washed and allow to relax to baseline.
To determine whether the test compound is a vasodilator, the vessel is again precontracted by the addition of […] norepinephrine, and after the force response reaches a steady state, the test compound is cumulatively added and the effect on force generation is determined. […] Ca^2+ receptor agonists that are found to be endothelium-independent vasodilators and whose dilator activity is blocked by quinacrine and sensory denervation are moved onto the tertiary in vivo blood pressure screen.
(§3) Mesenteric resistance arteries were precontracted with either 100 mM K^+ (in the presence of 1 μM phentolamine) or 5 μM norepinephrine and response to cumulative addition of NPS R831 (10 nM to 50 μM) determined.

mean arterial pressure = experiment: Mean arterial pressure of conscious SHR and WKY rats after bolus administration; type: in vivo, rat (SHR and WKY)
Source text: FIG. 12. Effect of bolus administration of 3 μmol/kg NPS R467 on mean arterial pressure (carotid artery catheter) of conscious SHR rats.
FIG. 13. Effect of bolus administration of 1 μmol/kg NPS R831 on mean arterial pressure (carotid artery catheter) of conscious SHR and WKY.
The initial studies assessed the effect of bolus administration of NPS R467 on mean arterial pressure of conscious rats of both strains.
As noted, one result of the studies in Example 1 was the identification of NPS R831 as a candidate compound for assessment of blood pressure lowering effects. A study was performed in which the effect of a bolus injection of NPS R831 on blood pressure of a single SHR and a single WKY rat were measured.

[10] = test system: voltage sensitive Ca^2+ channel; conditions: "in view of statements"; cited from earlier work
Ca^2+ channels = molecular target: T1, Ca^2+ channels (Rattus norvegicus, UniProt P22002); experiment: Relaxation of mesenteric arteries precontracted with 100 mM K+ (Ca2+ channel blocking activity)
T1 construct: voltage sensitive Ca^2+ channels present on smooth muscle; from tissue; host or cells: isolated mesenteric resistance arteries (rat)
Source text: Prior studies have shown that the parathyroid CaR agonists of the NPS R467 class block voltage sensitive Ca^2+ channel at mid-micromolar concentrations. […] The rationale was based on the facts that (a) K^+ -induced contraction is the result of influx of Ca^2+ into the cell through voltage gated Ca^2+ channels, and (b) Ca^2+ -induced relaxation is not observed during K^+ depolarization. Thus, CaR agonist mediated relaxation observed during K^+ induced contraction would reflect Ca^2+ channel blocking activity while […] relaxation observed during norepinephrine-induced contraction (which results from both Ca^2+ release and Ca^2+ entry) would be a mixture of Ca^2+ receptor stimulated relaxation and Ca^2+ channel activity.
as §3, with “determined. […] To determine that the high sensitivity component observed during norepinephrine-induced contraction is mediated by the perivascular CaR two additional studies are conducted.” for “determined.”

[11] = test system: Ca^2+-induced relaxation of mesenteric resistance arteries; experiment: Inhibition of Ca2+-induced relaxation of mesenteric resistance arteries by antagonists or denervation; parameters: species or system rat; conditions: prior results, K / KCa channel blockade
[12] = bolus injection, single SHR and single WKY

T1 sequence (P22002 whole entry): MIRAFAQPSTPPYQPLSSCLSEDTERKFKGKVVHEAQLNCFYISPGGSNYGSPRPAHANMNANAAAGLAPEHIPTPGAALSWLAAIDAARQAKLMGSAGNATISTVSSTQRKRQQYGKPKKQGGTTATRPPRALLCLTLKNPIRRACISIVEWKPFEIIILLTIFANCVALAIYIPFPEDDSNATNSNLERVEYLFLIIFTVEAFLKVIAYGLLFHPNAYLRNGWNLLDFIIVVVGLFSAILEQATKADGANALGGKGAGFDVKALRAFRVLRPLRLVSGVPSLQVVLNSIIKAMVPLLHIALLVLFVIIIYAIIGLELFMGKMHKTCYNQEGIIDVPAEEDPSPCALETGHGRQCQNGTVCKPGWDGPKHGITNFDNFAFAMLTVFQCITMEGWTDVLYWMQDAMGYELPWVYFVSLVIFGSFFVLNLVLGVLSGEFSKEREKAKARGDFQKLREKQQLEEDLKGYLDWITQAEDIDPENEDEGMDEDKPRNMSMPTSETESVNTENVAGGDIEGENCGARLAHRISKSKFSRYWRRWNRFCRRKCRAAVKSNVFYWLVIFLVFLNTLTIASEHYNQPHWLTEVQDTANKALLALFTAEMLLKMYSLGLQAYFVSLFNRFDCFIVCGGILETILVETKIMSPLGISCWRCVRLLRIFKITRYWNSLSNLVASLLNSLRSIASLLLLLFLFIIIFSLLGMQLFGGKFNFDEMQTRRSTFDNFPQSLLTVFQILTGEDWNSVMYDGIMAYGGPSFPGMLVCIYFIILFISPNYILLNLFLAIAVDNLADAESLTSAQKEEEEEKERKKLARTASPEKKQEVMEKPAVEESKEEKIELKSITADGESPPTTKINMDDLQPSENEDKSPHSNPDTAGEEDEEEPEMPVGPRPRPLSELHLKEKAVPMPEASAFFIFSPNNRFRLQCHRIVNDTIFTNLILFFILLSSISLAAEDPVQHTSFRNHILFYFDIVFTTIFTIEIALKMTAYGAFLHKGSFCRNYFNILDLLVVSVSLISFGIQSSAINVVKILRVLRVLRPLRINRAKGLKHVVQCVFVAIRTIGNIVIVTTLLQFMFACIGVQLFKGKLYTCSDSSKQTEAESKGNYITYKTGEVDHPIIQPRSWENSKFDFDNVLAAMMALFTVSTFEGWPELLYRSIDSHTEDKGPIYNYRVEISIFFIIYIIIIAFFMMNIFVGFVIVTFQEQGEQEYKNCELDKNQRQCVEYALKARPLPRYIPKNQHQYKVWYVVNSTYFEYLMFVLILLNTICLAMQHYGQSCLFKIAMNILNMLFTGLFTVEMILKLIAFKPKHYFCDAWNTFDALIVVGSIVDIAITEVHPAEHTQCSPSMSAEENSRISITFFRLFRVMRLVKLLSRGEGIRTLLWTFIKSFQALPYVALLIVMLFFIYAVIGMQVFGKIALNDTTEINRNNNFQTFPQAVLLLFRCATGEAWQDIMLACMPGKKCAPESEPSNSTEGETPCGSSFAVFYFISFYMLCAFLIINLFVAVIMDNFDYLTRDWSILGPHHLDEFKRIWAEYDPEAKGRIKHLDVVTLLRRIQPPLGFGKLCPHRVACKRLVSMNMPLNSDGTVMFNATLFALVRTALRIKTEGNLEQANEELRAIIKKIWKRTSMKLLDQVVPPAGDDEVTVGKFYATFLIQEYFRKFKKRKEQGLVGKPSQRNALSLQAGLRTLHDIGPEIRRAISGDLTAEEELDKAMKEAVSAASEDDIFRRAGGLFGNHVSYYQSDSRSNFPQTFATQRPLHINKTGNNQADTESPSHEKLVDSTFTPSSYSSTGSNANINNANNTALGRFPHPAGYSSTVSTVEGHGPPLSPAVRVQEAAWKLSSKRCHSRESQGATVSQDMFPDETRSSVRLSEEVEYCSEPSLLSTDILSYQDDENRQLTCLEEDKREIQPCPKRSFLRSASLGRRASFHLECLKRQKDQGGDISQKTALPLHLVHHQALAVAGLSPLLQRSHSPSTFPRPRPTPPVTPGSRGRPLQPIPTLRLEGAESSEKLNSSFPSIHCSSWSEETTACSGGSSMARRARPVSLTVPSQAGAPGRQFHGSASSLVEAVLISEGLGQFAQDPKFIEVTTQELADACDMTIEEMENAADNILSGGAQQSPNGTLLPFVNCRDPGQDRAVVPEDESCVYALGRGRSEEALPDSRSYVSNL
T1 sequence (P54290 25-944 partner limits assumed): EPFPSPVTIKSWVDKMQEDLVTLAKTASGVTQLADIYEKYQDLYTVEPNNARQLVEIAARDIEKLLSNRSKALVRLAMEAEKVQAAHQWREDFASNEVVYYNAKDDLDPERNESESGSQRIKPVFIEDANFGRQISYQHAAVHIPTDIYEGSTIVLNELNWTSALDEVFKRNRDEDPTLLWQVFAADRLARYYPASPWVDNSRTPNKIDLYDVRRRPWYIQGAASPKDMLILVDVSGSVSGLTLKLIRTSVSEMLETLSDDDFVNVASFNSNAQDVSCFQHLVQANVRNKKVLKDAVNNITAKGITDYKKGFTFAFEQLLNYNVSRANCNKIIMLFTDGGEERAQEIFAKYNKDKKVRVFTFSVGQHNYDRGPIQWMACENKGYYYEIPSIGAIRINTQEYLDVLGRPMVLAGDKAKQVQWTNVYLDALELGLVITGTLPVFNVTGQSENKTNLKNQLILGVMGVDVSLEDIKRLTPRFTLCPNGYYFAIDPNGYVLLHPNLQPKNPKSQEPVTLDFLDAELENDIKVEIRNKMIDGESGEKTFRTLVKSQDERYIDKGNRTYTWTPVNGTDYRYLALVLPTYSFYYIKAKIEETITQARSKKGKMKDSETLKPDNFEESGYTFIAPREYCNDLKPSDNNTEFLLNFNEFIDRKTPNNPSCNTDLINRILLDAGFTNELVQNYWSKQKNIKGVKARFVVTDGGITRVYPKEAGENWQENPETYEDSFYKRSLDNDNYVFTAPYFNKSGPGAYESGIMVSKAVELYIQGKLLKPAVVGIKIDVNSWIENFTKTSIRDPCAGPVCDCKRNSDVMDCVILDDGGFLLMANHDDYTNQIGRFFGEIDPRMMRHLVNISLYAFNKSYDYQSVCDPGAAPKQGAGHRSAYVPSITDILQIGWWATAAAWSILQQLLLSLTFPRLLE
T1 sequence (P54290 945-1091 partner limits assumed): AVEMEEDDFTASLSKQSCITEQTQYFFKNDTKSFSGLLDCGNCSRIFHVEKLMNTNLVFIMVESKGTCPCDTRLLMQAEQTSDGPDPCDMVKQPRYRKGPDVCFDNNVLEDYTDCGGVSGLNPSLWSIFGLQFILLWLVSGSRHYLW

Compound: [Ca+2] [Ca^2+]
relationship of 3 mM Ca2+-induced relaxation with CaR content ([1]; 5 μM norepinephrine): positively correlated | relaxation response of precontracted artery to Ca2+ ([1]; 1.5, 2, 3, 5, 7.5 and 10 mmol/L): biphasic relaxation response | effect on renal artery bioassay segment when superfused over the donor segment ([2]; 5 mM Ca2+): caused relaxation | direct effect on bioassay (renal artery) vessel ([2]; 5 mM Ca2+ added directly): without effect; also recorded: absence of response | direct effect on renal artery vessel after recontraction ([2]; Ca2+ 1.5-5.0 mM): no effect | effect on force ([3]; Ca2+ between 0.01 and 0.8 mmol/L): increase in force | steady state force and Ca2+ in ([3]; Ca2+ from 0.8 to 1.6, FIG. 2): decreased steady state force but not steady state Ca^2+in | effect on active stress ([3]; norepinephrine, serotonin and PGF2α contraction, not K+, 0.8 to 1.6 and 1.6 to 2.5 mmol/L): decreased active stress | effect on force ([3]; raising Ca2+ from 0.8 to 1.6 or 1.6 to 2.5 mmol/L): caused relaxation; also recorded: decrease in force and Ca^2+ | steady state intracellular Ca2+ [4]: only decreased significantly in response to 2.5 mmol/L extracellular Ca^2+ | response to low dose norepinephrine [5]: significantly depressed | EC50 ([6]; cumulatively raising extracellular Ca2+ above 1.5 mM, n=12, read-out: ED50 value of Ca2+-induced relaxation): 2.4 ± 0.17 mM | extent of relaxation ([6]; raising extracellular Ca2+ above 1.5 mM): nearly complete relaxation | effect on isolated arteries ([6]; raising extracellular Ca2+ from 1.0 mM to 1.5 mM): relaxes isolated arteries | effect of elevated dietary calcium intake on blood pressure (blood pressure [7]): lowers blood pressure | blood pressure lowering effect of Ca2+ supplementation (blood pressure [8]; clinical trials, overall): small overall blood pressure lowering effect | blood pressure response to Ca2+ supplementation in sub-groups (blood pressure [8]; sub-groups): significant fall in blood pressure | effect on rat tail arteries (rat tail arteries; raising Ca2+ from 4.1 to 20.1 mmol/L): relaxes rat tail arteries | effect of extracellular Ca2+ on K+-induced contraction (rat aorta): depressed | effect on cremaster arterioles (cremaster arterioles): graded contraction | effect on force generation (mammalian arteries): depress force generation | effect on early force response of the aorta to epinephrine (aorta): suppress the early force response | effect on later steady state response of the aorta (aorta): enhanced

Compound: [Gd+3] [Gd^3+]
activation of CaR (CaR): activated

Compound: [La+3] [La^3+]
activation of CaR (CaR): activated

Compound: COc1cccc([C@@H](C)NCCCc2ccccc2)c1 [NPS R467]
effect of TEA on relaxation induced by low range of the drug ([9]; 10 mM TEA, 10's of nM drug): completely antagonized | effect of TEA on relaxation induced by higher concentration of the drug ([9]; TEA, higher concentration): not blocked by TEA | concentration causing a larger relaxation ([9]; biphasic relaxation, high range): 3 to 10 µM | concentration inducing relaxation of similar extent to the Ca2+ relaxation ([9]; biphasic relaxation, low range): 50 to 300 nM | concentration activating the perivascular Ca2+ receptor and inducing relaxation ([9]; interpretation consistent with data): 30 to 300 nM | time for development of blood pressure lowering effect (mean arterial pressure; bolus, both strains): 30 to 40 min | blood pressure lowering effect (mean arterial pressure; bolus, conscious rats, both strains): modest and slowly developing | concentration of non-selective channel effects [10]: ≥ 4 µM

concentration of Ca2+ channel blocking mechanism of action (Ca^2+ channels; K+ vs norepinephrine contraction): mid-μM concentrations | IC50 (Ca^2+ channels; mesenteric arteries precontracted with 100 mM K+, read-out: IC50 for block of Ca2+ channels): ~0.0015 mM
Compound: COc1cccc([C@@H](C)NCCCc2ccccc2OC)c1 [NPS R831]
potency in relaxing precontracted arteries vs activating the parathyroid CaR ([9]; compared with parathyroid CaR system): relaxes precontracted arteries with the same potency as it activates the parathyroid CaR system | concentration of possibly perivascular CaR mediated component ([9]; norepinephrine-induced contraction): sub-micromolar concentrations | shift of relaxation response during K+- vs norepinephrine-induced contraction (Ca^2+ channels; 100 mM K+ (1 μM phentolamine) vs 5 μM norepinephrine, NPS R831 10 nM to 50 μM): significantly shifted to the right (less sensitive) | blood pressure lowering effect (mean arterial pressure; [12]): moderately rapid (within 5 min) blood pressure lowering effect in both strains | onset of blood pressure lowering effect (mean arterial pressure; [12]): ≤ 5 min

Compound: C[C@@H]1O[C@@H](O[C@H]2C[C@@H](O)[C@]3(CO)[C@H]4[C@H](O)C[C@]5(C)[C@@H](C6=CC(=O)OC6)CC[C@]5(O)[C@@H]4CC[C@]3(O)C2)[C@H](O)[C@H](O)[C@H]1O [ouabain]
effect of pre-treatment on Ca2+-induced relaxation of rat tail arteries (rat tail arteries): antagonized

Compound: NCCCNCCCCNCCCN [spermine]
activation of CaR (CaR): activated

Compound: charybdotoxin
effect on Ca2+-induced relaxation [11]: antagonized | effect on decrease in active stress induced by 1.6 and 2.5 mmol/L extracellular Ca2+ [3]: inhibited

Compound: neomycin
activation of CaR (CaR): activated
